# Measurements reported in patent US20250270394A1, “CYCLODEXTRIN INCORPORATED SILICONE MATERIALS AND THEIR USE AS CARRIERS FOR ACTIVES” (WACKER CHEMIE AG, priority 2022, published 2025).
# Where two headings read alike, the source gives them in different places.
# Experiments:
# [1] = Thermogravimetric analysis (TGA) of evaporation of active, pure versus silyl-CD complex; type: physicochemical
# Source text: Complex formation provides advantage for practical use of these guest molecules, many of which are pharmaceutical or cosmetic actives. For example, complexation slows down the evaporation of actives making the actives last longer. This is confirmed by Thermogravimetric analysis (TGA). Thermogravimetric analysis results for pure geraniol and its 1:1 complex with trimethylsilyl-β-cyclodextrin CH62 are shown in FIG. 4.
# The complex with TMS-β-CD CH62 contains approximately 6 wt. % Geraniol. […] Thus, complexation with silyl-CD slows down loss of geraniol.
# In FIG. 5 TGA thermograms show similar observations for complexation between a silyl-CD MG 15 and alpha-pinene 1:1 compared with pure alpha-pinene.
# Pure pinene completely evaporates by 140° C., but it takes up to approximately 200° C. for the pinene to completely evaporate from the complex.
# [2] = Homogeneity of cured silicone elastomer incorporating the cyclodextrin; type: physicochemical; conditions: hydrosilylation-cured PDMS elastomer, procedure analogous to CH95-70
# Source text: 0.802 g (0.304 mmol) CH70, dimethylvinylsilyl-β-cyclodextrin, and 52.0 g of a silicon hydride terminated polydimethylsiloxane fluid with a viscosity of approx. 1000 mPa·s, are placed in a suitable plastic cup with a lid along with a magnetic stir bar. The cup is blanketed with nitrogen gas and then closed to maintain an inert atmosphere while stirring. The materials are stirred until the cyclodextrin is fully dissolved. To this solution, 22.9 g of a vinyl terminated polydimethylsiloxane fluid with a viscosity of approx. 100,000 mPa·s, are added and the contents of the plastic cup are hand-mixed with a stirring rod. 0.0757 g of a platinum catalyst solution, divinyl tetramethyl disiloxane platinum complex diluted in vinyl terminated polysiloxane (1% w/w Pt content), are added to the mixture and hand-mixed, followed by further mixing in a FlackTek, Inc. Speedmixer™, model DAC 1100.2 VAC, at 1250 rpm for 1 minute under vacuum (95 mbar pressure, to degas the mixture).
# The composition is then placed into a “plate and frame” mold lined with a suitable release liner. The composition and mold are put into an oven preheated at 80° C. for 1 h to cure into a rubber slab produced are approximately 6 in X 6 in X 0.072 in. The cured elastomer specimen is clear and colorless. […]
# [3] = Release of geraniol from cured elastomer, weight loss in oven at 60° C.; type: physicochemical
# Procedure: A cured elastomer/CD/geraniol sample (VP141-2-1) containing 10:1 mole ratio of geraniol to CD was prepared by using the following procedure: Trimethylsilyl-β-cyclodextrin CH62 (1.41 g, 0.59 mmol) and geraniol (0.90 g, 5.9 mmol) were added to a plastic cup and mixed using a Speedmixer™ for 2 min at 2000 rpm (mixing was repeated 2-3 times). The mixture appeared almost homogeneous. SiH terminated linear silicone of approximate formula MHD220MH and approximate viscosity 1000 mPa·s (13.95 g), SiH terminated and pendant SiH containing silicone of approximate formula MHD95.5DH9.6MH and having an approximate viscosity of 165 mPa·s (0.71 g), vinyl terminated linear silicone of approximate viscosity 1000 mPa·s (22.31 g) and platinum catalyst solution (0.078 g) were added to the cup and mixed using Speedmixer™ for 2 min at 2000 rpm (x 3-4 times). The resulted clear and colorless mixture was left in the tightly closed cup for 24-36 h to cure at room temperature to get a cured elastomer sample.
# Then, vinyl terminated linear silicone of approximate viscosity 1000 mPa·s(23.09 g) and platinum catalyst solution (0.075 g) were added to the cup and mixed using Speedmixer™ for 2 min at 2000 rpm (mixing was repeated 2-3 times). The resultant clear, colorless mixture was left in the tightly closed cup for 24-36 h to cure at room temperature to get a cured elastomer sample. […]
# [4] = Solubility of silylated cyclodextrins in silicone fluid BELSIL DM 5
# Procedure: Such a homogneous mixture can also be formed by using a magnetic stirrer, overhead stirrer, Speedmixer™ or similar mixing techniques.
# Above experiment was repeated with a native γ-CD CAVAMAX® W8, which was not modified with silylation.
# Silylated β-cyclodextrin CH77 with low number of silyl groups (7.95 TMS and 3.23 VDMS groups on average) was evaluated to check the solubility in DM 5 at 10 wt. %.
temperature at which evaporation (weight loss) starts [1],temperature at which evaporation is complete [1],SMILES,appearance of cured elastomer sample [2],other results
< 30 °C,≤ 140 °C,"CC1=CCC2CC1C2(C)C (stereo not drawn) [pinene, alpha-pinene]",–,–
–,–,"OC[C@H]1O[C@@H]2O[C@H]3[C@H](O)[C@@H](O)[C@@H](O[C@H]4[C@H](O)[C@@H](O)[C@@H](O[C@H]5[C@H](O)[C@@H](O)[C@@H](O[C@H]6[C@H](O)[C@@H](O)[C@@H](O[C@H]7[C@H](O)[C@@H](O)[C@@H](O[C@H]8[C@H](O)[C@@H](O)[C@@H](O[C@H]1[C@H](O)[C@H]2O)O[C@@H]8CO)O[C@@H]7CO)O[C@@H]6CO)O[C@@H]5CO)O[C@@H]4CO)O[C@@H]3CO [CAVAMAX® W7, β-cyclodextrin]","heterogeneous, opaque, with large domain separations",–
approximately 75 °C,approximately 225 °C,"CC(C)=CCC/C(C)=C/CO [Geraniol, geraniol]",–,time to complete release of geraniol [3]: a few hours
–,–,"OC[C@H]1O[C@@H]2O[C@H]3[C@H](O)[C@@H](O)[C@@H](O[C@H]4[C@H](O)[C@@H](O)[C@@H](O[C@H]5[C@H](O)[C@@H](O)[C@@H](O[C@H]6[C@H](O)[C@@H](O)[C@@H](O[C@H]7[C@H](O)[C@@H](O)[C@@H](O[C@H]8[C@H](O)[C@@H](O)[C@@H](O[C@H]9[C@H](O)[C@@H](O)[C@@H](O[C@H]1[C@H](O)[C@H]2O)O[C@@H]9CO)O[C@@H]8CO)O[C@@H]7CO)O[C@@H]6CO)O[C@@H]5CO)O[C@@H]4CO)O[C@@H]3CO [CAVAMAX® W8, γ-cyclodextrin]",–,"solubility in DM 5 (appearance of mixture) [4]: heterogeneous and opaque, with gross phase separation"
–,–,COC[C@H]1O[C@@H]2O[C@H]3[C@H](OC)[C@@H](OC)[C@@H](O[C@H]4[C@H](OC)[C@@H](OC)[C@@H](O[C@H]5[C@H](OC)[C@@H](OC)[C@@H](O[C@H]6[C@H](OC)[C@@H](OC)[C@@H](O[C@H]7[C@H](OC)[C@@H](OC)[C@@H](O[C@H]8[C@H](OC)[C@@H](OC)[C@@H](O[C@H]1[C@H](OC)[C@H]2OC)O[C@@H]8COC)O[C@@H]7COC)O[C@@H]6COC)O[C@@H]5COC)O[C@@H]4COC)O[C@@H]3COC [permethylated β-cyclodextrin],"heterogeneous, opaque, with large domain separations","solubility in DM 5 (appearance of mixture) ([4]; 10 wt. % mixture in BELSIL DM 5 (polydimethylsiloxane, 5 mPa·s), vortex mixer): heterogeneous and opaque"
